# In patent US11718650B2, “Immunogenic peptides and their use in immune disorders” (IMCYSE SA, priority 2006, dated 2023):
# No end group written: not given here.
# Tests used:
# [1] = test system: WEHI cells; experiment: T cell clones from mice immunised with gp75-targeted Der p 1 peptides, lysis of WEHI cells; format: in vivo, mouse; details: 20 μg SC on aluminium hydroxide, three injections
# Experimental: Groups of BALB/c mice were immunised subcutaneously (20 μg) with the experimental peptide [SEQ ID. NO: 10] or the control peptide [SEQ ID, NO: 11] adsorbed onto aluminium hydroxide. Three injections were performed at 2-week intervals. Ten days after the last immunisation, mice were sacrificed and CD4+ T cells prepared from the spleen using magnetic beads, CD4+ T cells (2×10^6 cells) were then stimulated in vitro by the Der p 1 T cell epitope (20 μg) presented by adherent spleen cells serving as antigen-presenting cells.
# Ten days after stimulation the number of specific T cell lines obtained in each group was calculated by limiting dilution analysis. Each cell line was evaluated for its capacity to lyse WEHI cells, a B cell line selected for its efficacy in antigen-presentation by MHC class-II determinants, as described in Example 6. Only cells obtained from animals immunised with the peptide containing the glutaredoxin consensus sequence had acquired the capacity to lyse WEHI cells, and lysis occurs only in the presence of the cognate Der p 1 T cell epitope.
# [2] = test system: BALB/c mice; experiment: adoptive transfer of cytolytic T cell clones in asthma elicited by nasal instillation of Der p 1; format: in vivo, mouse
# Experimental: BALB/c mice were submitted to 2 series of 3 daily nasal instillations separated by 1 week, using 100 μg of the Der p 1 allergen. The day after the last nasal instillation, mice are sacrificed and checked for the presence of alterations characteristic of allergic asthma in the bronchoalveolar space and lung.
# Two additional groups of mice are adoptively transferred with cytolytic T cell clones obtained as described in Example 11 using the Der p 1 peptide with the motif, either prior to or after the first series of nasal instillations.
# BALF differential cell counts were carried out 4 days after the last series of nasal instillations (6 BALB/c per group). Cells were obtained by bronchoalveolar lavage of lungs and identified on cytospins as macrophages, neutrophils, eosinophils or lymphocytes. Mice received 2 series of 3 nasal instillations with either 100 μg Der p 1 (model) or NaCl (negative).
# Broncho-alveolar lavage fluids were tested for the presence of cytokines (Table 6).
# [3] = test system: BALB/c mice; experiment: T cell clones from BALB/c mice immunised with Der p 1 derived peptide; format: in vivo, mouse; details: 20 μg subcutaneous, 3 injections
# Experimental: Two groups of BALB/c mice were immunised by the subcutaneous route with either 20 μg of peptide with a T cell epitope sequence of the allergen Der p1 (SNYCQIYPPNANKIR [SEQ ID. NO: 5]) or a modified version thereof CGFS SNYCQIYPPNANKIR [SEQ ID. NO: 7] having at the N-terminus the sequence CGFS [SEQ ID. NO: 6].
# After 3 injections, mice were sacrificed and CD4+ T cells were purified from the spleen and cloned by limiting dilution. T cell clones obtained from mice immunised with the SNYCQIYPPNANKIR [SEQ ID. […] Mice immunised with the peptide CGFS SNYCQIYPPNANKIR [SEQ ID.
# [4] = test system: BALB/c mice; experiment: beta-lactoglobulin allergy mouse model; format: in vivo
# Experimental: BALB/c mice are immunised by 2 SC injections with 20 μg of the peptide of sequence CHGC AQKKIIAEK [SEQ ID. NO: 30] in alum. This is followed 15 days later by intraperitoneal sensitisation to BLG (5 μg in alum), on 2 occasions at a fortnight interval. Alternatively, peptide administration is given 15 days after IP sensitisation to BLG.
# Hypersensitivity to BLG is verified in the mouse by assessing bronchial hyperreactivity after intranasal administration of BLG. All mice are submitted to intranasal administration of 10 μg of BLG in saline 10 days after the last injections. A control group is included in which intraperitoneal sensitisation is carried out without peptide immunisation.
# [5] = test system: regulatory T cell clones with cytolytic activity; experiment: activation of cytolytic regulatory T cell clones by peptide-loaded APC; format: cell-based; details: versus C-x-x-S counterpart
# Experimental: Antigen-presenting cells were loaded with p21-35 in its native configuration [SEQ ID. NO: 2] or p21-35 in which serine in position 24 is substituted by cysteine […] [SEQ ID. NO: 29]. This substitution creates a redox moiety of the type C-x-x-C.
# Several regulatory T cell clones with cytolytic activity were incubated with APC. […] The granzymes are two of the key players in induction of apoptosis of target cells.
# [6] = test system: CD4+ effector T cells; experiment: activation of CD4+ effector T cells from patients sensitised to Der p 2; format: cell-based, human
# Description: Chemokines involved in attracting T lymphocytes to the lung are not precisely identified. The cytolytic Tregs described here express CD103 but not CCR7, which should confer them with the capacity to migrate to inflamed tissues. Other chemokines such as CCR5 and CCR3 were not detected. […] In an experimental model of asthma, including peripheral sensitisation and allergen inhalation, it was shown that Tregs have the capacity to prevent and suppress both inflammatory infiltration and airway hyperreactivity, which are the hallmarks of bronchial asthma. An LPS-free recombinant form of a main allergen, Der p 2, was used, which is involved in a large proportion of patients suffering from allergic asthma.
# [7] = test system: WEHI cells; experiment: apoptosis of peptide-loaded WEHI cells by cytolytic T cell clones, with inhibitors; format: cell-based, mouse; details: two CFSE-labelled populations, G121 Treg, 18 hours
# Experimental: For inhibition of GZ-B activity, Z-AAD-CMK (Calbiochem) or 3,4-dichloroiso-coumarin (DCIC) (SIGMA) were added at indicated concentrations during all the co-culture period.
# Experiments were carried out with p21-35-loaded CD11c dendritic (FIG. 13b: left panel) or WEHI cells (FIG. 13b: right panel). Upon incubation with R3TB7 virtually all dendritic cells (DC) or Wehi cells were induced into apoptosis as measured by caspase 3 activation.
# Apoptosis can be induced by either the Fas-FasL pathway or by secretion of cytotoxic granules containing granzymes. Attempts were made to inhibit each of these pathways. Addition of increasing concentrations of an antibody towards FasL, or of granzyme B inhibitors, to a cell culture containing p21-35 loaded WEHI cells and a cytolytic T cell clone, increased the number of surviving WEHI cells in a dose-dependent manner (FIG. 13c). In a number of experiments it was shown that the anti-FasL antibody restored up to 80% of WEHI cell survival.
# To further ascertain that APC lysis required direct contact with cytolytic T cells through MHC class II presentation of p21-35, an experiment was carried out in which two identical populations of Wehi cells were loaded with either p21-35 or with an irrelevant peptide (p71-85). These two populations could be distinguished by differential CFSE labelling. It can be seen from FIG. 13e that, while WEHI cells presenting p21-35 were fully lysed, only 40% of p71-85-loaded cells were affected.
# [8] = test system: Treg clone specific for p21-35; experiment: oxidative metabolism (ROS, carboxy-H2DCFDA) of cognate Treg cells; format: cell-based, mouse; details: 20 μg/ml, 90 minutes
# Experimental: A Treg clone (10^5 cells) specific for p21-35 was incubated for 90 minutes with PBS (FIG. 5, panel A), peptide p21-35 (20 μg/ml in 200 μl PBS; FIG. 5, panel B) or tert-butyl hydroperoxide (100 μM in PBS; FIG. 5, panel C), which is an inducer of Reactive Oxygen Species (ROS). Cells were then labelled for 30 minutes with carboxy-H2DCFDA (12 μM), a fluorogenic marker for ROS in live cells, and then analysed by flow cytometry.
# [9] = test system: p21-35-loaded Wehi cells; experiment: derivatisation of T cell clones after immunisation, screening for apoptosis of p21-35-loaded Wehi cells; format: in vivo, mouse
# Experimental: Derivatisation of regulatory T cell clones. BALB/c mice were immunised by 3 footpad injections of 20 μg/ml peptide mp21-35Asn in alum at 2 weeks intervals. Ten days after the last injection, spleen CD4+ T cells were stimulated with T cell depleted splenocytes from naïve mice in the presence of peptide mp21-35Asn. After 10 days, cells were restimulated in the same conditions but with 10 U/ml mouse II-2 (Roche). After the fifth restimulation, T cells were subcloned in the presence of 10 U/ml IL-2 by limiting dilution. The subsequent specific stimulations were carried out in the presence of 20 U/ml mouse IL-2. The G121 T cell line was derived as previously described (Janssens et al. (2003) J. Immunol. 171, 4604-4612.
# T cell clones were derived for phenotypic analysis from the spleen of mice injected with either mp21-35Asn in alum, mp21-35Asn in CFA/IFA (complete or incomplete Freund adjuvant), Der p 2 or saline as a control. A total of 17 clones were obtained, which expansion was fully dependent of addition of IL-2. These clones were maintained at rest for 10 days before assessing expression of CD25. Positive clones were then screened for their capacity to induce apoptosis of p21-35-loaded Wehi cells using annexin V binding as readout.
# [10] = test system: G221N; experiment: peptide processing assay with effector T cell clone G221N; format: cell-based, mouse; details: NaN3/deoxyglucose, colchicine, chloroquine
# [11] = prior to or after sensitisation
molecule,measurement,setting,value
CGFS SNYCQIYPPNANKIR SGGSGGSGG IITIAVVAALLLVAAIFGVASCLIRSRSTKNEANQPLLTDS [SEQ ID. NO: 10],T cell clones with Treg (cytotoxic) properties derived from immunised mice,[1],All T cell clones obtained after treatment with the construct and re-stimulated in vitro were cytotoxic
CGFSSNYCQIYPPNANKIR (glutaredoxin-like consensus sequence and dominant T cell epitope of the Der p 1 allergen) [SEQ ID. NO: 7],BAL IFN-gamma,[2]; Prevention,0 pg/mL
same,BAL IL-2,[2]; Prevention,0.7 pg/mL
same,BAL IL-4,[2]; Prevention,0 pg/mL
same,BAL IL-5,[2]; Prevention,0.3 pg/mL
same,BAL IL-10,[2]; Prevention,10 pg/mL
same,BAL IL-13,[2]; Prevention,0.2 pg/mL
same,BAL TGF-beta,[2]; Prevention,5.8 pg/mL
same,BAL TNF-alpha,[2]; Prevention,0.7 pg/mL
same,BAL IFN-gamma,[2]; Suppression,0 pg/mL
same,BAL IL-2,[2]; Suppression,0.8 pg/mL
same,BAL IL-4,[2]; Suppression,0.7 pg/mL
same,BAL IL-5,[2]; Suppression,0.5 pg/mL
same,BAL IL-10,[2]; Suppression,2 pg/mL
same,BAL IL-13,[2]; Suppression,0.3 pg/mL
same,BAL TGF-beta,[2]; Suppression,0 pg/mL
same,BAL TNF-alpha,[2]; Suppression,0 pg/mL
same,type of T cell clones obtained from immunised mice,[3],produced T cell clones with cytolytic properties
CHGC AQKKIIAEK (CHGCAQKKIIAEK; thioredox motif sequence CHGC linked to T cell epitope of Bovine beta-lactoglobulin (BLG)) [SEQ ID. NO: 30],capacity to react to BLG nasal instillation,"[4]; 20 μg in alum, 2 SC injections prior to or after sensitisation",completely lost the capacity to react to BLG nasal instillation
same,eosinophils in bronchoalveolar lavage fluid,[4]; [11],lack of eosinophils
same,hyperreactivity upon challenge with methacholine,[4]; [11],absence of hyperreactivity
CHGCEPCIIHRGKPF (p21-35 peptide of Der p2 allergen mutated at residue 24) [SEQ ID. NO: 29],T cell activation assessed by cytokine production,[5],higher degree of T cell activation
same,transcription of mRNA for FasL and granzymes,[5],more than its C-x-x-S counterparts
CHGSEPCIIHRGKPF (the p21-35 peptide of Der p 2 allergen) [amino acids 21 to 35 of Der p 2],activation of patients' CD4+ effector T cells,[6],activated CD4+ effector T cells from patients sensitised to Der p 2
same,lysis of WEHI cells loaded with the peptide,[7],fully lysed
same,fluorescence intensity due to ROS increase,[8],doubling
"QYIKANSKFIGITELGGCHGSEPCNIHRGKPF (not fully specified (residues 18, 24); cysteine pairing not given here) [mp21-35Asn]",cytolytic clones among CD4+CD25+ T cell clones,[9]; immunised in CFA/IFA,0/5
same,cytolytic clones among CD4+CD25+ T cell clones,[9]; immunised in alum,8/8
"SNYCQIYPPNANKIR (dominant T cell epitope of Der p 1 allergen) [SEQ ID. NO: 5, reference compound]",type of T cell clones obtained from immunised mice,[3],produced effector CD4+ T cells
"SNYCQIYPPNANKIR SGGSGGSGG IITIAVVAALLLVAAIFGVASCLIRSRSTKNEANQPLLTDS [SEQ ID. NO: 11, reference compound]",T cell clones with Treg (cytotoxic) properties derived from immunised mice,[1],not from mice that received the control peptide
"p71-85: alternative major T cell epitope (p71-85) located on Der p 2 (NACHYMKCPLVKGQQ; UniProt P49278 88-102, looked up, fragment) [reference compound]",lysis of WEHI cells loaded with the peptide,[7],40%
same,induction of cytolytic Tregs towards the epitope,"[9]; mouse, in vivo",not possible to induce cytolytic Tregs
"Der p 2: Recombinant full-length Der p 2 produced in Pichia pastoris (protein, UniProt P49278 1-146, looked up, full-length recombinant, Pichia pastoris, Recombinant full-length Der p 2 produced in Pichia pastoris) MMYKILCLSLLVAAVARDQVDVKDCANHEIKKVLVPGCHGSEPCIIHRGKPFQLEAVFEANQNTKTAKIEIKASIDGLEVDVPGIDPNACHYMKCPLVKGQQYDIKYTWNVPKIAPKSENVVVTVKVMGDDGVLACAIATHAKIRD","requirement for internalisation, fusion with and acidification of late endosomes",[10],required internalisation into antigen-presenting cells
same,cytolytic clones among CD4+CD25+ T cell clones,[9]; mice immunised with Der p 2,0/4
